# Data from patent publication US12312359B2 (Vitae Pharmaceuticals, LLC, priority 2016, dated 2025).
# What was measured:
# [1] = biological target: T1, biotinylated wild-type menin and MLL-AF9 fusion protein (menin/MLL binding) (Homo sapiens, UniProt O00255); test: Assay 1: menin/MLL binding AlphaLISA assay, wild-type menin; settings: Table 30; column head does not say wild-type or mutated menin
# T1 construct: made in house; host or cells: menin: E. coli; MLL-AF9-FLAG: HEK293 cells, used as cleared lysate
# T1 sequence (O00255 1-610): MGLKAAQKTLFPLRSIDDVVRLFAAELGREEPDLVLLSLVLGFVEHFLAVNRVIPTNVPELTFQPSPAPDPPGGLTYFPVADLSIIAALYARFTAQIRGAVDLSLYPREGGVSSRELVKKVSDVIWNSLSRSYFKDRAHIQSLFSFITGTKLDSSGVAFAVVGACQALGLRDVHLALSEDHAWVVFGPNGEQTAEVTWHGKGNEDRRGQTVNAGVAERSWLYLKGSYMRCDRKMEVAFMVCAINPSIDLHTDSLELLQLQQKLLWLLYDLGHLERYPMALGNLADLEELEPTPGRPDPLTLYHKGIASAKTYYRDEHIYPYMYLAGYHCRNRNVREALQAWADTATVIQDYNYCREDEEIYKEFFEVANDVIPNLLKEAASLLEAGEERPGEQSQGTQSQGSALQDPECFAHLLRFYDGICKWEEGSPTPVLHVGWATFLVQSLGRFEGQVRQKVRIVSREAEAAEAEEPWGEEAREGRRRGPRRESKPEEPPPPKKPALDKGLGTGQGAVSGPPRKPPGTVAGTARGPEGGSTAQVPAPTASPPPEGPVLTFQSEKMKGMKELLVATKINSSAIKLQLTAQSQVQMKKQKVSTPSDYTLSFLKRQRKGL
# In short: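 Compound was preincubated 30 min at room temperature with biotinylated menin (5 nM) and MLL-AF9-FLAG lysate from HEK293 cells, pH 7.4 buffer with 5% DMSO and DTT. Bead-based Alpha signal after 60 min with streptavidin donor and anti-FLAG acceptor beads; four-parameter logistic fit gave IC50.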
# [2] = system: human acute monocytic leukemia cell line MV-4-11; test: Assay 2: cell proliferation assay (ATP quantitation, CellTiter-Glo), MV-4-11; type: cell-based; settings: MV-4-11 cells
# In short: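 Read-out is CellTiter-Glo luminescence quantifying ATP. Compound exposure lasted 72 h at 37° C., 5% CO2, with 1.67×10^4 MV-4-11 cells per well in 10% FBS medium, alongside HL-60 toxicity-control cells.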
SMILES,IC50 [1],"EC50 ([2]; Homo sapiens, MV4-11, 72 h)",EC50 ([2]; 72 h)
"N#Cc1ccc(-c2cc(F)ccc2Oc2cncnc2N2CCC3(CCN(Cc4ccc5[nH]c(=O)[nH]c5c4)C3)C2)c(C2CC2)c1 (racemic) [Example 42, 2-cyclopropyl-5′-fluoro-2′-((4-(7-((2-oxo-2,3-dihydro-1H-benzo[d]imidazol-5-yl)methyl)-2,7-diazaspiro[4.4]nonan-2-yl)pyrimidin-5-yl)oxy)-[1,1′-biphenyl]-4-carbonitrile]",< 100 nM,< 100 nM,
"N#Cc1ccc(-c2cc(F)ccc2Oc2cncnc2N2CCC3(CCN(Cc4ccc5c(c4)NC(=O)C5)C3)C2)c(C2CC2)c1 (stereo not shown) [Example 196, 2-cyclopropyl-5′-fluoro-2′-((4-(7-((2-oxoindolin-6-yl)methyl)-2,7-diazaspiro[4.4]nonan-2-yl)pyrimidin-5-yl)oxy)-[1,1′-biphenyl]-4-carbonitrile]",< 100 nM,< 100 nM,
"CC(C)N(C(=O)c1cc(F)ccc1Oc1cncnc1N1CC2(CN(CC[C@H]3CC[C@H](NC(=O)C(C)(C)C)CC3)C2)C1)C(C)C [Example 105, 5-fluoro-N,N-diisopropyl-2-((4-(6-(2-((1r,4r)-4-pivalamidocyclo-hexyl)ethyl)-2,6-diazaspiro[3.3]heptan-2-yl)pyrimidin-5-yl)oxy)benzamide]",< 100 nM,< 100 nM,
"CC(C)c1ccccc1-c1cc(F)ccc1Oc1cncnc1N1CCC2(CCN(C[C@H]3CC[C@H](NC(=O)OC(C)(C)C)CC3)C2)C1 (stereo partly shown) [Example 220, tert-butyl ((1r,4r)-4-((7-(5-((5-fluoro-2′-isopropyl-[1,1′-biphenyl]-2-yl)oxy)pyrimidin-4-yl)-2,7-diazaspiro[4.4]nonan-2-yl)methyl)cyclohexyl) carbamate]",< 100 nM,100 to 1000 nM,
"COc1ccc(CC(=O)N2CC3(C2)CN(c2ncncc2Oc2ccc(F)cc2-c2cncnc2C(C)C)C3)cn1 [Example 132, 1-(6-(5-(4-fluoro-2-(4-isopropylpyrimidin-5-yl)phenoxy)pyrimidin-4-yl)-2,6-diazaspiro[3.3]heptan-2-yl)-2-(6-methoxypyridin-3-yl)ethan-1-one]",< 100 nM,100 to 1000 nM,
"N#Cc1ccc(-c2cc(F)cc(F)c2Oc2cncnc2N2CCC3(CCN(Cc4ccc5[nH]c(=O)[nH]c5c4)C3)C2)c(C2CC2)c1 (stereo not shown) [Example 52, 2-cyclopropyl-3′,5′-difluoro-2′-((4-(7-((2-oxo-2,3-dihydro-1H-benzo[d]imidazol-5-yl)methyl)-2,7-diazaspiro[4.4]nonan-2-yl)pyrimidin-5-yl)oxy)-[1,1′-biphenyl]-4-carbonitrile]",< 100 nM,,< 100 nM
"CC(C)c1ncncc1-c1cc(F)ccc1Oc1cncnc1N1CC2(CC(N3CCc4cc(F)ccc4C3)CO2)C1 (stereo not shown) [Example 139, 2-(5-(4-fluoro-2-(4-isopropylpyrimidin-5-yl)phenoxy)pyrimidin-4-yl)-7-(6-fluoro-3,4-dihydroisoquinolin-2(1H)-yl)-5-oxa-2-azaspiro[3.4]octane]",< 100 nM,100 to 1000 nM,
"O=C(O)c1ccc(-c2cc(F)ccc2Oc2cncnc2N2CCC3(CCN(Cc4ccc5[nH]c(=O)[nH]c5c4)C3)C2)c(C2CC2)c1 (stereo not shown) [Example 44, 2-cyclopropyl-5′-fluoro-2′-((4-(7-((2-oxo-2,3-dihydro-1H-benzo[d]imidazol-5-yl)methyl)-2,7-diazaspiro[4.4]nonan-2-yl)pyrimidin-5-yl)oxy)-[1,1′-biphenyl]-4-carboxylic acid]",< 100 nM,100 to 1000 nM,
"CC(C)c1ncncc1-c1cc(F)ccc1Oc1cncnc1N1CC2(CC(NCC3CCC(C)(C#N)CC3)C2)C1 (stereo not shown) [Example 140, 4-(((2-(5-(4-fluoro-2-(4-isopropylpyrimidin-5-yl)phenoxy)pyrimidin-4-yl)-2-azaspiro[3.3]heptan-6-yl)amino)methyl)-1-methylcyclohexane-1-carbonitrile]",< 100 nM,100 to 1000 nM,
"CCN(C(=O)C(C)C)c1cc(F)ccc1Oc1cncnc1N1CC2(CCN(CC(C)C)C2)C1 [Example 136, N-ethyl-N-(5-fluoro-2-((4-(6-isobutyl-2,6-diazaspiro[3.4]octan-2-yl)pyrimidin-5-yl)oxy)phenyl)iso-butyramide]",< 100 nM,100 to 1000 nM,
"CC(C)N(C(=O)c1cc(F)ccc1Oc1cncnc1N1CC2(CC(NC3CCOCC3)C2)C1)C(C)C [Example 239, 5-fluoro-N,N-diisopropyl-2-((4-(6-((tetrahydro-2H-pyran-4-yl)amino)-2-azaspiro[3.3]heptan-2-yl)pyrimidin-5-yl)oxy)benzamide]",< 100 nM,< 100 nM,
"CCN(C(=O)c1cc(F)ccc1Oc1cncnc1N1CC2(CCN(C[C@H]3CC[C@H](NS(C)(=O)=O)CC3)CC2)C1)C(C)C [Example 238, N-ethyl-5-fluoro-N-isopropyl-2-((4-(7-(((1r,4r)-4-(methylsulfonamido)cyclohexyl)methyl)-2,7-diazaspiro[3.5]nonan-2-yl)pyrimidin-5-yl)oxy)benzamide]",< 100 nM,< 100 nM,
"CCC(C)(OC)c1cc(F)ccc1Oc1cncnc1N1CCC2(CCN(Cc3ccc4[nH]c(=O)[nH]c4c3)C2)C1 (stereo not shown) [Example 33, 5-((7-(5-(4-fluoro-2-(2-methoxybutan-2-yl)phenoxy)pyrimidin-4-yl)-2,7-diazaspiro[4.4]nonan-2-yl)methyl)-1,3-dihydro-2H-benzo[d]imidazol-2-one]",< 100 nM,100 to 1000 nM,

# Results, then the compound that gave them:
IC50 [1],"EC50 ([2]; Homo sapiens, MV4-11, 72 h)",EC50 ([2]; 72 h),SMILES
< 100 nM,,100 to 1000 nM,"CC(C)N(C(=O)c1cc(F)ccc1Nc1cncnc1N1CCC2(CC1)CN(C1CCC(NS(C)(=O)=O)CC1)C2)C(C)C (single isomer, unassigned) [Example 248B, 5-fluoro-N,N-diisopropyl-2-((4-(2-(4-(methylsulfonamido)cyclohexyl)-2,7-diazaspiro[3.5]nonan-7-yl)pyrimidin-5-yl)amino) benzamide]"
< 100 nM,< 100 nM,,"CCN(C(=O)c1cc(F)ccc1Oc1cncnc1N1CCC2(CCN(Cc3ccc4[nH]c(=O)[nH]c4c3)C2)C1)C(C)C (single isomer, unassigned) [Example 2B, N-ethyl-5-fluoro-N-isopropyl-2-((4-(7-((2-oxo-2,3-dihydro-1H-benzo[d]imidazol-5-yl)methyl)-2,7-diazaspiro[4.4]nonan-2-yl)pyrimidin-5-yl)oxy)benzamide]"
< 100 nM,,100 to 1000 nM,"CC(C)N(C(=O)c1cc(F)ccc1Oc1cncnc1N1CCC2(CC(O)C(Cc3ccc4[nH]c(=O)[nH]c4c3)C2)C1)C(C)C (single isomer, unassigned) [Example 23A, 5-fluoro-2-((4-(7-hydroxy-8-((2-oxo-2,3-dihydro-1H-benzo[d]imidazol-5-yl)methyl)-2-azaspiro[4.4]nonan-2-yl)pyrimidin-5-yl)oxy)-N,N-diisopropylbenzamide]"
< 100 nM,100 to 1000 nM,,"CC(C)n1nccc1-c1cc(F)ccc1Oc1cncnc1N1CCC2(CCN(C(=O)C(N)C3CCCCC3)C2)C1 (single isomer, unassigned) [Example 206A, 2-amino-2-cyclohexyl-1-(7-(5-(4-fluoro-2-(1-isopropyl-1H-pyrazol-5-yl)phenoxy)pyrimidin-4-yl)-2,7-diazaspiro[4.4]nonan-2-yl)ethanone]"
< 100 nM,< 100 nM,,"CC(O)c1ccccc1-c1cc(F)ccc1Oc1cncnc1N1CCC2(CCN(Cc3ccc4[nH]c(=O)[nH]c4c3)C2)C1 (single isomer, unassigned) [Example 60A, 5-((7-(5-((5-fluoro-2′-(1-hydroxyethyl)-[1,1′-biphenyl]-2-yl)oxy)pyrimidin-4-yl)-2,7-diazaspiro[4.4]nonan-2-yl)methyl)-1H-benzo[d]imidazol-2(3H)-one]"
< 100 nM,,< 100 nM,"N#Cc1ccc(-c2cc(F)ccc2Oc2cncnc2N2CCC3(CCN(Cc4ccc5[nH]c(=O)[nH]c5c4)C3)C2)c(C2CC2)c1 (single isomer, unassigned) [Example 42B, 2-cyclopropyl-5′-fluoro-2′-((4-(7-((2-oxo-2,3-dihydro-1H-benzo[d]imidazol-5-yl)methyl)-2,7-diazaspiro[4.4]nonan-2-yl)pyrimidin-5-yl)oxy)-[1,1′-biphenyl]-4-carbonitrile]"
< 100 nM,≥ 1000 nM,,"CC(C)N(C(=O)c1cc(F)ccc1Oc1cncnc1N1CCC2(CC(N)C(Cc3ccc4[nH]c(=O)[nH]c4c3)C2)C1)C(C)C (single isomer, unassigned) [Example 24A, 2-((4-(7-amino-8-((2-oxo-2,3-dihydro-1H-benzo[d]imidazol-5-yl)methyl)-2-azaspiro[4.4]nonan-2-yl)pyrimidin-5-yl)oxy)-5-fluoro-N,N-diisopropylbenzamide]"
